# Source: ChEMBL document CHEMBL1143941, “Design, synthesis and structure-activity study of shorter hexa peptide analogues as HIV-1 protease inhibitors” (Bioorg Med Chem, 2008)
# System: Human immunodeficiency virus 1
# Assay: Inhibition of recombinant HIV1 protease at 100 ug/ml
row,Molecule,inhibition
1,H-LLEYVW-OH,64.9%
2,H-LLEYVM-OH,47.2%

# Other lines, results leading:
row,inhibition,Molecule
1,98.5%,CC(=O)N[C@H](C(=O)N[C@H](C(=O)N[C@@H](CC(C)C)[C@@H](O)CC(=O)N[C@@H](C)C(=O)N[C@@H](CC(C)C)[C@@H](O)CC(=O)O)C(C)C)C(C)C
2,52.3%,H-LLEYVF-OH
3,58.6%,H-LLEYVY-OH
